Paper PMC6826928, “A New Natural Antioxidant Biomaterial from Cinnamomum osmophloeum Kanehira Leaves Represses Melanogenesis and Protects against DNA Damage” (Antioxidants, 2019)

Test system: T1, mushroom tyrosinase
T1 construct: gene PPO3; commercial native preparation from Merck; likely isoenzyme mixture
Assay: absorbance at […] nm, Lineweaver–Burk plot
Type: biochemical
Conditions: no inhibitor, 0.2 M sodium phosphate pH 6.8, 25 °C

Row | Compound | Km (diphenolase activity) [mg/mL] | Km (monophenolase activity) [mg/mL]
1 | N[C@@H](Cc1ccc(O)c(O)c1)C(=O)O [L-DOPA, L-3,4-dihydroxyphenylalanine] | 0.511 | –
2 | N[C@@H](Cc1ccc(O)cc1)C(=O)O [L-tyrosine] | – | 0.534
